How the values were obtained:
Human gammaherpesvirus 8 [1] = test: Inhibition of Kaposi's sarcoma-associated herpesvirus His-tagged oligomerization-deficient LANA DBD mutant (1008 to 1146 residues) assessed as disruption of LANA-DNA interaction at 250 uM preincubated with LBS1 representing 5'-Dy682-labeled double stranded DNA probe as substrate for 30 mins followed by compound addition and measured after 30 mins by Electrophoretic mobility shift assay
Human gammaherpesvirus 8 [2] = test: Antiviral activity against Kaposi's sarcoma-associated herpesvirus infected in human HEK293 cells transfected with KSHV pGTR4:73 with four terminal repeats and LANA expression cassette containing plasmid assessed as inhibition of LANA-mediated replication of viral latent replication origin TR sequence at 15.625 to 62.5 uM incubated for 3 days by Southern blot analysis; assay type: functional, organism-based; conditions: dose 15.625-62.5 µM, time 3.0 day

Compound: Cc1cc(-c2cccc(Cl)c2)ncc1-n1cc(-c2ccc(C(=O)O)cc2)nn1
- inhibition (Human gammaherpesvirus 8 [1]): < 10%

Compound: COc1ccc(-c2cc(C)c(-n3cc(-c4ccc(C(=O)O)cc4)nn3)cn2)c(Cl)c1
- Activity (Human gammaherpesvirus 8 [2]): Dose-Dependent Effect

Compound: COc1ccc(-c2cc(C)c(-n3cc(-c4ccc(C(=O)O)cc4)nn3)cn2)cn1
- inhibition (Human gammaherpesvirus 8 [1]): < 10%

Compound: Cc1cc(-c2ccccc2)ncc1-n1cc(-c2ccc(C(=O)O)cc2)nn1
- inhibition (Human gammaherpesvirus 8 [1]): < 10%

Compound: Cc1cc(-c2cccc(C(=O)O)c2)ncc1-n1cc(-c2ccc(C(=O)O)cc2)nn1
- inhibition (Human gammaherpesvirus 8 [1]): < 10%

Compound: COc1cccc(-c2cc(C)c(-n3cc(-c4ccc(C(=O)O)cc4)nn3)cn2)c1
- inhibition (Human gammaherpesvirus 8 [1]): < 10%

From ChEMBL document CHEMBL5346982, “Disrupting Kaposi's Sarcoma-Associated Herpesvirus (KSHV) Latent Replication with a Small Molecule Inhibitor” (J Med Chem, 2023)
